Experimental data reported in article PMC5863483, “Low HLA binding of diabetes-associated CD8+ T-cell epitopes is increased by post translational modifications” (BMC Immunology, 2018).
Where a SMILES comes first, the peptide text is derived from it. [ ]: non-standard residue; d: D form. Cit = NC(=O)NCCC[C@H](N)C(=O)O

target: HLA-A*02:01 (Homo sapiens, UniProt P04439, D140Y/D185E/D98H/E176V/E277Q/G131W/G231S/I119V/I121R/I166T/I218V/L300P/L318F/N151K/N90K/P208A/P217A/Q86G/Q94H/R138H/R169H/T345S); experiment: HLA-peptide competition binding assay, A*02:01; details: not given

| SMILES | IC50 [nM] |
| --- | --- |
| CSCC[C@H](NC(=O)[C@H](Cc1c[nH]c2ccccc12)NC(=O)[C@H](CC(C)C)NC(=O)[C@H](C)NC(=O)[C@@H](N)CCSC)C(=O)N[C@@H](CCCNC(N)=O)C(=O)N[C@@H](CC(C)C)C(=O)N[C@@H](CC(C)C)C(=O)N1CCC[C@H]1C(=O)N[C@@H](CC(C)C)C(=O)O (H-MALWM[Cit]LLPL-OH) | 262 |

same assay, conditions: post-translationally modified insulin peptide; competition binding assay; a dash indicates IC50 >40,000 nM; read-out: A*02:01 binding (IC50 nM) Modified

| SMILES | IC50 [nM] |
| --- | --- |
| CC(C)C[C@H](N)C(=O)N[C@H](C(=O)N[C@@H](CS)C(=O)NCC(=O)N[C@@H](CCC(=O)O)C(=O)N[C@@H](CCCNC(N)=O)C(=O)NCC(=O)N[C@@H](Cc1ccccc1)C(=O)N[C@@H](Cc1ccccc1)C(=O)O)C(C)C (H-LVCGE[Cit]GFF-OH; N-terminus and C-terminus assumed) | > 40000 |
| CC(C)C[C@H](N)C(=O)N[C@H](C(=O)N[C@@H](CS)C(=O)NCC(=O)N[C@@H](CCC(=O)O)C(=O)N[C@@H](CCCNC(N)=O)C(=O)NCC(=O)N[C@@H](Cc1ccccc1)C(=O)N[C@@H](Cc1ccccc1)C(=O)N[C@@H](Cc1ccc(O)cc1)C(=O)O)C(C)C (H-LVCGE[Cit]GFFY-OH; N-terminus and C-terminus assumed) | > 40000 |
| CC(C)C[C@H](NC(=O)[C@H](CC(=O)O)NC(=O)[C@H](CCC(=O)O)NC(=O)[C@H](C)NC(=O)[C@H](CCC(=O)O)NC(=O)[C@H](CCCNC(N)=O)NC(=O)[C@H](CCCNC(N)=O)NC(=O)[C@@H](NC(=O)[C@H](CCCCN)NC(=O)[C@@H]1CCCN1)[C@@H](C)O)C(=O)O (H-PKT[Cit][Cit]EAEDL-OH; N-terminus and C-terminus assumed) | > 40000 |
| C[C@H](NC(=O)[C@H](CCC(=O)O)NC(=O)[C@H](CCCNC(N)=O)NC(=O)[C@H](CCCNC(N)=O)NC(=O)[C@@H](NC(=O)[C@H](CCCCN)NC(=O)[C@@H]1CCCN1C(=O)[C@@H](N)[C@@H](C)O)[C@@H](C)O)C(=O)N[C@@H](CCC(=O)O)C(=O)O (H-TPKT[Cit][Cit]EAE-OH; N-terminus and C-terminus assumed) | > 40000 |
| CC(C)C[C@H](NC(=O)[C@H](CC(=O)O)NC(=O)[C@H](CCC(=O)O)NC(=O)[C@H](C)NC(=O)[C@H](CCC(=O)O)NC(=O)[C@H](CCCNC(N)=O)NC(=O)[C@H](CCCNC(N)=O)NC(=O)[C@@H](N)[C@@H](C)O)C(=O)N[C@@H](CCC(N)=O)C(=O)O (H-T[Cit][Cit]EAEDLQ-OH; N-terminus and C-terminus assumed) | > 40000 |

The remaining lines, values ahead:

| IC50 [nM] | SMILES |
| --- | --- |
| > 40000 | CC(C)C[C@H](NC(=O)[C@H](CC(=O)O)NC(=O)[C@H](CCC(=O)O)NC(=O)[C@H](C)NC(=O)[C@H](CCC(=O)O)NC(=O)[C@H](CCCNC(N)=O)NC(=O)[C@H](CCCNC(N)=O)NC(=O)[C@@H](NC(=O)[C@@H](N)CCCCN)[C@@H](C)O)C(=O)O (H-KT[Cit][Cit]EAEDL-OH; N-terminus and C-terminus assumed) |
| > 40000 | CC(C)C[C@H](NC(=O)[C@H](CO)NC(=O)CNC(=O)[C@H](CCC(=O)O)NC(=O)[C@@H](N)CC(C)C)C(=O)N[C@@H](CCC(N)=O)C(=O)N[C@@H](CCCCN)C(=O)N[C@@H](CCCNC(N)=O)C(=O)NCC(=O)O (H-LEGSLQK[Cit]G-OH; N-terminus and C-terminus assumed) |
| > 40000 | CC[C@H](C)[C@H](NC(=O)CNC(=O)[C@H](CCCNC(N)=O)NC(=O)[C@H](CCCCN)NC(=O)[C@H](CCC(N)=O)NC(=O)[C@H](CC(C)C)NC(=O)[C@H](CO)NC(=O)CNC(=O)[C@H](CCC(=O)O)NC(=O)[C@@H](N)CC(C)C)C(=O)O (H-LEGSLQK[Cit]GI-OH; N-terminus and C-terminus assumed) |
| > 40000 | CC[C@H](C)[C@H](NC(=O)CNC(=O)[C@H](CCCNC(N)=O)NC(=O)[C@H](CCCCN)NC(=O)[C@H](CCC(N)=O)NC(=O)[C@@H](N)CC(C)C)C(=O)N[C@H](C(=O)N[C@@H](CCC(=O)O)C(=O)N[C@@H](CCC(N)=O)C(=O)O)C(C)C (H-LQK[Cit]GIVEQ-OH; N-terminus and C-terminus assumed) |
| > 40000 | CC[C@H](C)[C@H](NC(=O)CNC(=O)[C@H](CCCNC(N)=O)NC(=O)[C@H](CCCCN)NC(=O)[C@H](CCC(N)=O)NC(=O)[C@@H](N)CC(C)C)C(=O)N[C@H](C(=O)N[C@@H](CCC(=O)O)C(=O)N[C@@H](CCC(N)=O)C(=O)N[C@@H](CS)C(=O)O)C(C)C (H-LQK[Cit]GIVEQC-OH; N-terminus and C-terminus assumed) |
| > 40000 | CC[C@H](C)[C@H](NC(=O)CNC(=O)[C@H](CCCNC(N)=O)NC(=O)[C@H](CCCCN)NC(=O)[C@@H](N)CCC(N)=O)C(=O)N[C@H](C(=O)N[C@@H](CCC(=O)O)C(=O)N[C@@H](CCC(N)=O)C(=O)N[C@@H](CS)C(=O)O)C(C)C (H-QK[Cit]GIVEQC-OH; N-terminus and C-terminus assumed) |
| > 40000 | CC[C@H](C)[C@H](NC(=O)CNC(=O)[C@H](CCCNC(N)=O)NC(=O)[C@H](CCCCN)NC(=O)[C@H](CCC(N)=O)NC(=O)[C@H](CC(C)C)NC(=O)[C@@H](N)CO)C(=O)N[C@H](C(=O)N[C@@H](CCC(=O)O)C(=O)N[C@@H](CCC(N)=O)C(=O)O)C(C)C (H-SLQK[Cit]GIVEQ-OH; N-terminus and C-terminus assumed) |

same assay, conditions: post-translationally modified insulin-derived peptide; radiolabeled ligand competition, purified MHC, two-day incubation, three or more independent experiments; read-out: A*02:01 binding, Modified

| SMILES | IC50 [nM] |
| --- | --- |
| CC(C)C[C@H](NC(=O)[C@H](C)NC(=O)[C@@H](N)CC(C)C)C(=O)N[C@@H](CCC(=O)O)C(=O)NCC(=O)N[C@@H](CO)C(=O)N[C@@H](CC(C)C)C(=O)N[C@@H](CCC(N)=O)C(=O)N[C@@H](CCCCN)C(=O)N[C@@H](CCCNC(N)=O)C(=O)O (H-LALEGSLQK[Cit]-OH) | 16400 |
| CSCC[C@H](NC(=O)[C@H](Cc1c[nH]c2ccccc12)NC(=O)[C@@H](N)CC(C)C)C(=O)N[C@@H](CCCNC(N)=O)C(=O)N[C@@H](CC(C)C)C(=O)N[C@@H](CC(C)C)C(=O)N1CCC[C@H]1C(=O)N[C@@H](CC(C)C)C(=O)N[C@@H](CC(C)C)C(=O)N[C@@H](C)C(=O)O (H-LWM[Cit]LLPLLA-OH) | 61 |
| CSCC[C@H](NC(=O)[C@H](Cc1c[nH]c2ccccc12)NC(=O)[C@H](CC(C)C)NC(=O)[C@H](C)NC(=O)[C@@H](N)CCSC)C(=O)N[C@@H](CCCNC(N)=O)C(=O)N[C@@H](CC(C)C)C(=O)N[C@@H](CC(C)C)C(=O)N1CCC[C@H]1C(=O)O (H-MALWM[Cit]LLP-OH) | 2120 |

same assay, conditions: read-out: A*02:01 binding (IC50 nM) Modified

| SMILES | IC50 [nM] |
| --- | --- |
| CC(C)C[C@H](NC(=O)[C@H](CC(=O)O)NC(=O)[C@H](CCC(=O)O)NC(=O)[C@H](C)NC(=O)[C@H](CCC(=O)O)NC(=O)[C@H](CCCNC(N)=O)NC(=O)[C@H](CCCNC(N)=O)NC(=O)[C@@H](NC(=O)[C@@H](N)CCCCN)[C@@H](C)O)C(=O)N[C@@H](CCC(N)=O)C(=O)O (H-KT[Cit][Cit]EAEDLQ-OH) | 22300 |
| CSCC[C@H](NC(=O)[C@H](Cc1c[nH]c2ccccc12)NC(=O)[C@@H](N)CC(C)C)C(=O)N[C@@H](CCCNC(N)=O)C(=O)N[C@@H](CC(C)C)C(=O)N[C@@H](CC(C)C)C(=O)N1CCC[C@H]1C(=O)N[C@@H](CC(C)C)C(=O)N[C@@H](CC(C)C)C(=O)O (H-LWM[Cit]LLPLL-OH) | 148 |
| CSCC[C@H](N)C(=O)N[C@@H](CCCNC(N)=O)C(=O)N[C@@H](CC(C)C)C(=O)N[C@@H](CC(C)C)C(=O)N1CCC[C@H]1C(=O)N[C@@H](CC(C)C)C(=O)N[C@@H](CC(C)C)C(=O)N[C@@H](C)C(=O)N[C@@H](CC(C)C)C(=O)N[C@@H](CC(C)C)C(=O)O (H-M[Cit]LLPLLALL-OH) | 98 |
| CC(C)C[C@H](NC(=O)[C@H](CC(=O)O)NC(=O)[C@H](CCC(=O)O)NC(=O)[C@H](C)NC(=O)[C@H](CCC(=O)O)NC(=O)[C@H](CCCNC(N)=O)NC(=O)[C@H](CCCNC(N)=O)NC(=O)[C@@H](N)[C@@H](C)O)C(=O)N[C@@H](CCC(N)=O)C(=O)N[C@H](C(=O)O)C(C)C (H-T[Cit][Cit]EAEDLQV-OH) | 30200 |
